For ten molecules, GI50 and TGI results are on record in PubChem BioAssay (NCI).

Test systems include A549 NSCLC; HT29 colon; EKVX NSCLC; NCI-H460 lung; U251 CNS; CAKI-1 renal; MALME-3M melanoma; SF-295 CNS; CCRF-CEM leukemia; ACHN renal.
Holding throughout (assay): NCI anticancer screen, dose series, 48 h

“And” between values parts separate entries of the source, which are not always exact repeats. Identical values can stand only once.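 Where inhibition never reached the appropriate level, the endpoint shown equals the highest concentration tested. Otherwise, values were interpolated linearly from a five-concentration, 48-hour dose response in 96-well plates. GI50 marks 50% less growth. The concentration for full growth arrest is given as TGI.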

For `COc1cc(OCc2cccc(-c3ccc(C(O)c4nccs4)cc3)c2C)cc(OC)c1C=O` (stereo unspecified), the GI50 in the experiment on A549 NSCLC was 2.32 µM; with HT29 colon, 2.83 µM; in the experiment with EKVX NSCLC, 2.02 µM; in the experiment on NCI-H460 lung, 1.09 µM; in the experiment with U251 CNS, 2.74 µM; in the experiment with CAKI-1 renal, 0.182 µM. For the same molecule, the GI50 was 2.7 µM in the experiment with MALME-3M melanoma, 2.12 µM in the experiment with SF-295 CNS, 2.33 µM with CCRF-CEM leukemia and 1.72 µM in the experiment on ACHN renal. The TGI with A549 NSCLC is 11.6 µM; in the experiment with HT29 colon, 13.6 µM; with EKVX NSCLC, 6.63 µM; with NCI-H460 lung it was 10.7 µM; with U251 CNS, 11.3 µM; in the experiment with CAKI-1 renal, 3.3 µM. Also, the TGI with MALME-3M melanoma is 7.9 µM; in the experiment with SF-295 CNS it was 6.58 µM; in the experiment on CCRF-CEM leukemia it was 19.9 µM; in the experiment on ACHN renal it was 6.68 µM.

On to `C/C=C/C(CC(O)(C(F)(F)F)C(F)(F)F)=N/NC(N)=S`, for which the TGI in the experiment with A549 NSCLC, in the experiment on HT29 colon, in the experiment with EKVX NSCLC, in the experiment on NCI-H460 lung, with U251 CNS and in the experiment on CAKI-1 renal was over 10 µM each time. The TGI in the experiment with MALME-3M melanoma, in the experiment on SF-295 CNS, in the experiment on CCRF-CEM leukemia and in the experiment with ACHN renal was over 10 µM throughout.

`COc1cccc(C2CC(C)(O)Oc3cc4c(cc32)OCO4)c1O` (stereo unspecified): the TGI was over 100 µM in the experiment on A549 NSCLC; 50.6 µM with HT29 colon; 99.4 µM in the experiment on EKVX NSCLC; over 92.7 µM in the experiment on NCI-H460 lung; 70.4 µM in the experiment with U251 CNS; over 100 µM in the experiment on CAKI-1 renal. The TGI in the experiment with MALME-3M melanoma was over 100 µM; with SF-295 CNS, 64.9 µM; in the experiment with CCRF-CEM leukemia, over 95.9 µM; in the experiment with ACHN renal, over 100 µM.

Turning to `O=C(/C=C/c1ccccc1)CCC1C(=O)c2ccccc2C1=O`, the TGI in the experiment with A549 NSCLC, in the experiment with HT29 colon, in the experiment with EKVX NSCLC, with NCI-H460 lung, with U251 CNS and with CAKI-1 renal was over 100 µM throughout. Moreover, the TGI with MALME-3M melanoma, in the experiment with SF-295 CNS, in the experiment on CCRF-CEM leukemia and with ACHN renal was over 100 µM in each case.

As to `CC(C)NC(=O)OCc1c(COC(=O)NC(C)C)c(-c2cc[n+](COC(=O)C3CC3)cc2)n2c1CCC2`, the TGI with A549 NSCLC, in the experiment on HT29 colon, in the experiment with EKVX NSCLC, with NCI-H460 lung, in the experiment with U251 CNS and with CAKI-1 renal was over 100 µM throughout. For the same molecule, the TGI in the experiment with MALME-3M melanoma, in the experiment on SF-295 CNS, in the experiment on CCRF-CEM leukemia and in the experiment with ACHN renal was over 100 µM throughout.

In the case of `N#Cc1c(NC(=O)NCc2ccccc2)sc2c1CCCCC2`, the GI50 in the experiment with A549 NSCLC is 0.626 µM; in the experiment with HT29 colon, 0.398 µM; in the experiment on EKVX NSCLC, 0.461 µM; with NCI-H460 lung, 0.352 µM; in the experiment with U251 CNS it was 0.535 µM; in the experiment on CAKI-1 renal it was 0.659 µM. Further, the GI50 in the experiment on MALME-3M melanoma is 0.524 µM; in the experiment with SF-295 CNS it was 0.425 µM; in the experiment with CCRF-CEM leukemia, 0.357 µM; in the experiment on ACHN renal it was 0.629 µM. For the same molecule, the TGI in the experiment with A549 NSCLC was over 100 µM; in the experiment with HT29 colon it was over 100 µM; with EKVX NSCLC it was over 100 µM; in the experiment with NCI-H460 lung it was over 31.7 µM; in the experiment with U251 CNS, over 71.2 µM; in the experiment on CAKI-1 renal, over 100 µM. The TGI in the experiment on MALME-3M melanoma is over 100 µM; with SF-295 CNS it was 24 µM; with CCRF-CEM leukemia, over 100 µM; in the experiment on ACHN renal, over 100 µM.

Regarding `CN(C)CCNC(=O)c1cccc2ccc(-c3ccc(O)cc3)nc12`, the TGI in the experiment on A549 NSCLC was 7.17 µM; in the experiment with HT29 colon, 14.5 µM and 17.2 µM; in the experiment on EKVX NSCLC, 26.3 µM; with NCI-H460 lung, 2.85 µM and 2.99 µM; in the experiment on U251 CNS, 10.4 µM; with CAKI-1 renal it was 6.53 µM and 11.3 µM. Further, the TGI in the experiment on MALME-3M melanoma was 6.08 µM and 2.9 µM; in the experiment with SF-295 CNS, 10.8 µM; in the experiment on CCRF-CEM leukemia, 7.25 µM; with ACHN renal, 4.98 µM. The GI50 with NCI-H460 lung is 0.637 µM; with MALME-3M melanoma, 0.863 µM; in the experiment on SF-295 CNS, 2.82 µM.

As for `CC(C)C(CCl)NC(=O)c1cccc(C(=O)N[C@H](CCl)C(C)C)n1` (stereo in doubt), the TGI in the experiment with A549 NSCLC, in the experiment with HT29 colon, with EKVX NSCLC, with NCI-H460 lung, in the experiment on U251 CNS and with CAKI-1 renal was over 100 µM each time. In addition, the TGI in the experiment with MALME-3M melanoma, in the experiment on SF-295 CNS, in the experiment on CCRF-CEM leukemia and in the experiment on ACHN renal was over 100 µM each time.

On to `C/C=C(\C)C(=O)O[C@H]1C=CC(=O)O[C@H]1CCC(=O)[C@H](C)O`, for which the GI50 is 20.9 µM with A549 NSCLC; 8.61 µM in the experiment on HT29 colon; 17.8 µM in the experiment on EKVX NSCLC; 19.2 µM in the experiment on NCI-H460 lung; 12.9 µM with U251 CNS; 7.16 µM in the experiment with CAKI-1 renal. In addition, the GI50 in the experiment on MALME-3M melanoma was 15.5 µM; in the experiment on SF-295 CNS it was 23.6 µM; in the experiment on CCRF-CEM leukemia it was 0.014 µM; in the experiment on ACHN renal it was 11 µM. In addition, the TGI in the experiment on A549 NSCLC worked out at 46.7 µM; with HT29 colon it was 23.5 µM; in the experiment on EKVX NSCLC, 33.6 µM; in the experiment on NCI-H460 lung, 43.2 µM; with U251 CNS, 26.4 µM; in the experiment on CAKI-1 renal it was 17.3 µM. The TGI in the experiment with MALME-3M melanoma stood at 32.1 µM; with SF-295 CNS, 50.8 µM; in the experiment on CCRF-CEM leukemia, 9.1 µM; in the experiment on ACHN renal, 23.4 µM.

For the molecule `CC[As](CC)SC[C@H](C)C(=O)N1CCC[C@H]1C(=O)O`, the GI50 with HT29 colon is 0.339 µM; in the experiment with EKVX NSCLC, 0.162 µM; in the experiment on NCI-H460 lung it was 0.418 µM; in the experiment on U251 CNS it was 0.197 µM; in the experiment on CAKI-1 renal it was under 0.0181 µM; with MALME-3M melanoma it was 0.0441 µM. Also, the GI50 is 0.743 µM in the experiment on SF-295 CNS, 0.017 µM in the experiment with CCRF-CEM leukemia and 0.0548 µM with ACHN renal. In addition, the TGI with HT29 colon was over 100 µM; with EKVX NSCLC, 1.72 µM; in the experiment with NCI-H460 lung, 2.17 µM; in the experiment on U251 CNS, 0.576 µM; in the experiment on CAKI-1 renal, 0.0648 µM; with MALME-3M melanoma, 0.207 µM. The TGI with SF-295 CNS amounted to 2 µM; in the experiment on CCRF-CEM leukemia it was 0.0573 µM; in the experiment with ACHN renal, 0.169 µM.
